# Patent US20120225062A1 (priority 2011, published 2012)
# Columns and labels:
# [1] = system: KMS11 (human myeloma cell line); assay: Cell Proliferation Assay (CellTiter-Glo, 3 days); format: cell-based; conditions: KMS-11, 72 h, KMS11-luc cells
# Method in brief: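 KMS11 myeloma cells, 2000 per well in IMDM with 10% FBS, exposed to compound for 3 days at 37° C. Viability read by CellTiter-Glo luminescence; EC50 derived.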
# [2] = target: Pim 1 (Homo sapiens, UniProt P11309); assay: Pim 1 AlphaScreen assay (high ATP)
# Pim 1, sequence (P11309 whole entry): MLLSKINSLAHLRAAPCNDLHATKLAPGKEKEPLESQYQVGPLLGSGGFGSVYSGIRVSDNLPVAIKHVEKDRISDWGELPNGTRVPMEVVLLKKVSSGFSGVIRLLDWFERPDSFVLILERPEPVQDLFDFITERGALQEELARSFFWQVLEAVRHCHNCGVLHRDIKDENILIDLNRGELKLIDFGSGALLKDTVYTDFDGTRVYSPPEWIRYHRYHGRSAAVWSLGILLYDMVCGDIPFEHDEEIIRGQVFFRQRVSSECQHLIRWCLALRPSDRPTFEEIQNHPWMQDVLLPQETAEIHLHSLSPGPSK
# [3] = target: Pim 2 (Homo sapiens, UniProt Q9P1W9); assay: Pim 2 AlphaScreen assay (high ATP)
# Pim 2, sequence (Q9P1W9 whole entry): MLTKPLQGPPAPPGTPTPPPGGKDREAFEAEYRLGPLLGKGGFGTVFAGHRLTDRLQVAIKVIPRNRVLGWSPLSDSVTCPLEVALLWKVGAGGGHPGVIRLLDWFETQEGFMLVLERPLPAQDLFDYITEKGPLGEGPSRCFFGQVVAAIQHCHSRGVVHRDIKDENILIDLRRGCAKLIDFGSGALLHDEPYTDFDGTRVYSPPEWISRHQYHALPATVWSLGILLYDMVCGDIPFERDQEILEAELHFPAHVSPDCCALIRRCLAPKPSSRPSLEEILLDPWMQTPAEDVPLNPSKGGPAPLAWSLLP
# [4] = target: Pim 3 (Homo sapiens, UniProt Q86V86); assay: Pim 3 AlphaScreen assay (high ATP)
# Method: The activity of Pim 1, Pim 2, & Pim 3 is measured using a homogeneous bead based system quantifying the amount of phosphorylated peptide substrate resulting from kinase-catalyzed phosphoryl transfer to a peptide substrate. Compounds to be tested are dissolved in 100% DMSO and directly distributed to a white 384-well plate at 0.25 μl per well. […] This is followed by the addition of 5 μl/well of Pim 1, Pim 2 or Pim 3 kinase in assay buffer (concentrations described below). Final assay concentrations (described below) are in 2.5% DMSO. The reactions are performed for ˜2 hours, then stopped by the addition of 10 μl of 0.75 μg/ml anti-phospho Ser/Thr antibody (Cell Signaling), 10 μg/ml Protein A AlphaScreen beads (Perkin Elmer), and 10 μg/ml streptavidin coated AlphaScreen beads in stop/detection buffer (50 mM EDTA, 95 mM Tris, pH=7.5, 0.01% Tween-20). The stopped reactions are incubated overnight in the dark. The phosphorylated peptide is detected via an oxygen anion initiated chemiluminescence/fluorescence cascade using the Envision plate reader (Perkin Elmer).
EC50 [1] [nM],IC50 [2] [nM],IC50 [3] [nM],IC50 [4] [nM],Structure (SMILES)
549,0.08,10.3,6.9,"C[C@H]1C[C@@H](c2ccncc2NC(=O)c2ccc(F)c(-c3c(F)cc(C4(F)COC4)cc3F)n2)C[C@@H](N)[C@H]1O [Example 137, N-(4-((1R,3R,4S,5S)-3-amino-4-hydroxy-5-methylcyclohexyl)pyridin-3-yl)-6-(2,6-difluoro-4-(3-fluorooxetan-3-yl)phenyl)-5-fluoropicolinamide]"
96,0.01,1.23,0.13,"C[C@@H]1C[C@H](N)C[C@H](c2ccncc2NC(=O)c2ccc(F)c(-c3c(F)cc([C@H]4CCOC4)cc3F)n2)C1 [Example 207, N-(4-((1R,3S,5S)-3-amino-5-methylcyclohexyl)pyridin-3-yl)-6-(2,6-difluoro-4-((R)-tetrahydrofuran-3-yl)phenyl)-5-fluoropicolinamide]"
76,0.01,1.16,0.24,"CC(C)Oc1cc(F)c(-c2nc(C(=O)Nc3cnccc3[C@@H]3C[C@H](C)C[C@H](N)C3)c(N)cc2F)c(F)c1 [Example 96, 3-amino-N-(4-((1R,3S,5S)-3-amino-5-methylcyclohexyl)pyridin-3-yl)-6-(2,6-difluoro-4-isopropoxyphenyl)-5-fluoropicolinamide]"
395,0.03,1.42,0.84,"C[C@H]1C[C@@H](c2ccncc2NC(=O)c2ccc(F)c(-c3c(F)cc(OCC4CCOCC4)cc3F)n2)C[C@@H](N)[C@@H]1O [Example 178, N-(4-((1R,3R,4R,5S)-3-amino-4-hydroxy-5-methylcyclohexyl)pyridin-3-yl)-6-(2,6-difluoro-4-((tetrahydro-2H-pyran-4-yl)methoxy)phenyl)-5-fluoropicolinamide]"
12,0.01,0.53,0.13,"C[C@@H]1C[C@H](N)C[C@H](c2ccncc2NC(=O)c2nc(-c3c(F)cc(C(C)(C)O)cc3F)c(F)cc2N)C1 [Example 100, 3-amino-N-(4-((1R,3S,5S)-3-amino-5-methylcyclohexyl)pyridin-3-yl)-6-(2,6-difluoro-4-(2-hydroxypropan-2-yl)phenyl)-5-fluoropicolinamide]"
29,0.02,1.48,0.52,"C[C@@H]1C[C@H](N)C[C@H](c2ccncc2NC(=O)c2ccc(F)c(-c3c(F)cc(CC(C)(C)O)cc3F)n2)C1 [Example 84, N-(4-((1R,3S,5S)-3-amino-5-methylcyclohexyl)pyridin-3-yl)-6-(2,6-difluoro-4-(2-hydroxy-2-methylpropyl)phenyl)-5-fluoropicolinamide]"
21,0.01,0.67,0.26,"C[C@H]1CN(c2ccncc2NC(=O)c2ccc(F)c(-c3c(F)cc(C4(O)COC4)cc3F)n2)C[C@@H](N)[C@@H]1O [Example 89, N-(4-((3R,4R,5S)-3-amino-4-hydroxy-5-methylpiperidin-1-yl)pyridin-3-yl)-6-(2,6-difluoro-4-(3-hydroxyoxetan-3-yl)phenyl)-5-fluoropicolinamide]"
28,0.01,0.38,0.14,"COCCc1cc(F)c(-c2nc(C(=O)Nc3cnccc3N3C[C@@H](N)[C@H](O)[C@@H](C)C3)ccc2F)c(F)c1 [Example 109, N-(4-((3R,4R,5S)-3-amino-4-hydroxy-5-methylpiperidin-1-yl)pyridin-3-yl)-6-(2,6-difluoro-4-(2-methoxyethyl)phenyl)-5-fluoropicolinamide]"
206,0.02,4.78,1.1,"C[C@@H]1C[C@H](N)C[C@H](c2ccncc2NC(=O)c2ccc(F)c(-c3c(F)cc(OCCN4CCCC4=O)cc3F)n2)C1 [Example 132, N-(4-((1R,3S,5S)-3-amino-5-methylcyclohexyl)pyridin-3-yl)-6-(2,6-difluoro-4-(2-(2-oxopyrrolidin-1-yl)ethoxy)phenyl)-5-fluoropicolinamide]"

# Continued, molecule first:
Structure (SMILES),EC50 [1] [nM],IC50 [2] [nM],IC50 [3] [nM],IC50 [4] [nM]
"C[C@H]1C[C@@H](c2ccncc2NC(=O)c2ccc(F)c(-c3c(F)cc(O[C@H]4CCCOC4)cc3F)n2)C[C@@H](N)[C@@H]1O [Example 80, N-(4-((1R,3R,4R,5S)-3-amino-4-hydroxy-5-methylcyclohexyl)pyridin-3-yl)-6-(2,6-difluoro-4-((S)-tetrahydro-2H-pyran-3-yloxy)phenyl)-5-fluoropicolinamide]",24,0.02,2.16,0.58
"COC(C)(C)COc1cc(F)c(-c2nc(C(=O)Nc3cnccc3[C@H]3C[C@@H](N)[C@H](O)[C@@H](C)C3)ccc2F)c(F)c1 [Example 45, N-(4-((1R,3R,4R,5S)-3-amino-4-hydroxy-5-methylcyclohexyl)pyridin-3-yl)-6-(2,6-difluoro-4-(2-methoxy-2-methylpropoxy)phenyl)-5-fluoropicolinamide]",49,0.03,3.15,1.13
"C[C@@H]1C[C@H](N)C[C@H](c2ccncc2NC(=O)c2ccc(F)c(-c3c(F)cc(O[C@H]4CCCOC4)cc3F)n2)C1 [Example 79, N-(4-((1R,3S,5S)-3-amino-5-methylcyclohexyl)pyridin-3-yl)-6-(2,6-difluoro-4-((S)-tetrahydro-2H-pyran-3-yloxy)phenyl)-5-fluoropicolinamide]",12,0.01,1.08,0.24
"C[C@H]1C[C@@H](c2ccncc2NC(=O)c2ccc(F)c(-c3c(F)cc(OCC(C)(C)O)cc3F)n2)C[C@@H](N)[C@@H]1O [Example 51, N-(4-((1R,3R,4R,5S)-3-amino-4-hydroxy-5-methylcyclohexyl)pyridin-3-yl)-6-(2,6-difluoro-4-(2-hydroxy-2-methylpropoxy)phenyl)-5-fluoropicolinamide]",30,0.03,4.34,1.02
"COCc1cc(F)c(-c2nc(C(=O)Nc3cnccc3[C@H]3C[C@@H](N)[C@H](O)[C@@H](C)C3)ccc2F)c(F)c1 [Example 40, N-(4-((1R,3R,4R,5S)-3-amino-4-hydroxy-5-methylcyclohexyl)pyridin-3-yl)-6-(2,6-difluoro-4-(methoxymethyl)phenyl)-5-fluoropicolinamide]",68,0.08,3.98,2.63
"C[C@@H]1C[C@H](N)C[C@H](c2ccncc2NC(=O)c2ccc(F)c(-c3c(F)cc(C4CCOCC4)cc3F)n2)C1 [Example 82, N-(4-((1R,3S,5S)-3-amino-5-methylcyclohexyl)pyridin-3-yl)-6-(2,6-difluoro-4-(tetrahydro-2H-pyran-4-yl)phenyl)-5-fluoropicolinamide]",30,0.01,1.05,0.52
"C[C@H]1C[C@@H](c2ccncc2NC(=O)c2ccc(F)c(-c3c(F)cc(OC4COC4)cc3F)n2)C[C@@H](N)[C@@H]1O [Example 47, N-(4-((1R,3R,4R,5S)-3-amino-4-hydroxy-5-methylcyclohexyl)pyridin-3-yl)-6-(2,6-difluoro-4-(oxetan-3-yloxy)phenyl)-5-fluoropicolinamide]",97,0.04,6.33,1.32
